Results from patent US20190008757A1, “DERMATOLOGICAL OR COSMETIC COMPOSITIONS CONTAINING A POLYPHENOL?ENRICHED EXTRACT OF VITEX NEGUNDO” (Laboratoires Expanscience, priority 2016, published 2019).

How the values were obtained:
[1] = test system: Normal human keratinocytes; assay: Production of reactive oxygen species (DCFH-DA) in keratinocytes treated with H2O2; format: cell-based; conditions: for ROS Mean: 24 h preincubation and during 100 μM H2O2 20 min, normalised to living cells; for ROS Increase (%): versus 100 μM H2O2; for ROS production following H2O2 treatment (in words): antioxidant references, 10 μM quercetin or 500 μM vitamin C
Protocol: The antioxidant effect of the polyphenol-enriched extract of Vitex negundo is evaluated using the incorporation of DCFHDA (2′,7′-dichlorofluorescin diacetate) into keratinocytes in culture. This molecule is a nonfluorescent marker in an unoxidised state. Under oxidising conditions (in this case stress induced by hydrogen peroxide, H2O2), DCFHDA will be degraded to DCF, a molecule which will emit fluorescence. […] Normal human keratinocytes were preincubated for 24 hours in the presence of 0.0005%, 0.001% and 0.005% (w/v) concentrations of the polyphenol-enriched extract of Vitex negundo, and 0.016%, 0.03% and 0.16% monopropylene glycol (controls corresponding to the solvent concentrations contained in the concentrations of Vitex negundo extract studied), 10 μM quercetin or 500 μM vitamin C (the latter two molecules serving as antioxidant reference). The cells are then treated for 1 hour in the presence of 0.5 mM DCFH-DA. Oxidation is induced by addition of 100 μM H2O2 for 20 minutes. A second treatment with the tested products is performed simultaneously with H2O2 stress (at the same concentrations as the pretreatment). Lastly, a measurement of fluorescence density (DFU) corresponding to the amount of ROS is performed using a microplate reader. In parallel, the number of biologically active cells was determined by a neutral red assay. The amount of ROS (reactive oxygen species) measured for each condition was normalised to the number of living cells determined by the neutral red assay. The significance of the results was verified by a one-factor analysis of variance followed by Tukey's test (GraphPad PRISM software version 5.02, GraphPad Software, San Diego Calif. USA).

[2] = test system: Interleukin-1 beta (IL1β); assay: Assay of IL1β in keratinocytes treated with 10 μg/mL PMA; format: cell-based, human; conditions: 0.1 μM, 24 h pretreatment; for IL1Beta Mean: then 10 μg/mL PMA overnight; for IL1Beta Increase (%): versus PMA
Protocol: (§1) Release of the cytokines Interleukin-1 beta (IL1β) and Prostaglandin E2 (PGE2) was analysed. […] Inflammation was then induced by addition of 10 μg/mL PMA overnight. An assay of IL1β and PGE2 was then performed in the cell culture supernatants. In parallel, the number of biologically active cells was determined by a neutral red assay. The amount of cytokine measured for each condition was normalised to the number of living cells determined by the neutral red assay. The significance of the results was verified by a one-factor analysis of variance followed by Tukey's test (GraphPad PRISM software version 5.02, GraphPad Software, San Diego Calif. USA).

Prostaglandin E2 (PGE2) = assay: Assay of PGE2 in keratinocytes treated with 10 μg/mL PMA; format: cell-based, human; conditions: 0.1 μM; for PGE2 Mean / PGE2 Increase (%): 24 h pretreatment; for PGE2 Mean: then 10 μg/mL PMA overnight; for PGE2 Increase (%): versus PMA
Protocol: as §1

[3] = test system: human sensory neuron/old keratinocyte cocultures; assay: Neurite length of sensory neurons in neuron/keratinocyte co-cultures; format: cell-based; conditions: 50 ng/mL
Protocol: Sensory neurons are derived from hiPS cells obtained from human fibroblasts. hiPS cells were cocultured with keratinocytes […]. The co-cultures were treated with the Vitex negundo extract at various concentrations (0.003%, 0.001%, 0.0005%, 0.0001%, 0.00005%, 0.00001% (w/v)), with 0.1% monopropylene glycol (extraction solvent control) and with 50 ng/mL nerve growth factor (NGF) serving as positive reference for dendrite elongation.
After 6 days of co-culture, the cells were fixed with 2% paraformaldehyde solution and then labelled with an anti-β-tubulin antibody. Labelling was observed using a fluorescence microscope and 20 images were acquired per co-culture. The length of the sensory neuron projections was measured and normalised by the number of labelled cell bodies. All statistics were done using the t-test and the ANOVA test (*p<0.05; **p<0.01; ***p<0.001).

Compound | ROS production following H2O2 treatment (in words) [1] | IL1Beta Mean [2] | IL1Beta Increase (%) [2] | PGE2 Mean (Prostaglandin E2 (PGE2)) | PGE2 Increase (%) (Prostaglandin E2 (PGE2)) | other results
O=c1c(O)c(-c2ccc(O)c(O)c2)oc2cc(O)cc(O)c12 [quercetin] | significantly decreased |  |  |  |  | ROS Mean ([1]; 10 μmol/L): 24411 fluorescence units; ROS Increase (%) ([1]; 10 μmol/L): −82%
COc1ccc2c(c1)c(CC(=O)O)c(C)n2C(=O)c1ccc(Cl)cc1 [Indometacin, indomethacin] |  | 0.172 (pg/mL)/OD neutral red | −5% | 416.328 (pg/mL)/OD neutral red | −82% | release of PGE2 (in words) (Prostaglandin E2 (PGE2); pretreatment for 24 hours): significantly decreased
NGF: nerve growth factor (NGF) serving as positive reference for dendrite elongation |  |  |  |  |  | total neurite length and neurite length per cell (in words) [3]: significantly increased; Neurite length per cell ([3]; 6 days of co-culture, control cells 143 ± 16): 212 ± 23 (*) arbitrary units; Total neurite length ([3]; 6 days of co-culture, control cells 6865 ± 633): 10393 ± 1849 (**) arbitrary units
O=C1O[C@H]([C@@H](O)CO)C(O)=C1O [vitamin C] | significantly decreased |  |  |  |  | ROS Mean ([1]; 500 μM): 11940 fluorescence units; ROS Increase (%) ([1]; 500 μM): −91%
C[C@@H]1C[C@H]2[C@@H]3CCC4=CC(=O)C=C[C@]4(C)[C@@]3(F)[C@@H](O)C[C@]2(C)[C@@]1(O)C(=O)CO [Dexamethasone, dexamethasone] |  | 0.120 (pg/mL)/OD neutral red | −34% | 1339.332 (pg/mL)/OD neutral red | −43% | 
